{"source": "patent US10053497B2", "about": "“Therapeutic epitopes and uses thereof” (OXFORD UNIVERSITY INNOVATION LIMITED, priority 2002, dated 2018)", "tested_on": "PBMC from coeliac disease subjects", "assay": "IFNγ ELISPOT with PBMC of coeliac disease subjects after bread/gluten challenge (agonist bioactivity of peptides)", "format": "cell-based, human", "details": "for % Bioactivity: peptide 25 mcg/ml plus tTG 8 mcg/ml, minus blank, relative to A-gliadin 57-73 plus tTG, mean (SEM), n=5; for Elisopt response TG: peptide treated with transglutaminase, value (range), A-gliadin 57-73 E65 = 100; for Elisopt response TG / Mean IFNγ ELISPOT response relative to the immunodominant epitope (Glu65): 3 subjects; for Bioactivity % of unmodified A-gliadin 57-73 QE65 (G): 50 mcg/ml, PBMC from 8 subjects, blank 7.1%; for Mean IFNγ ELISPOT response relative to the immunodominant epitope (Glu65): A-gliadin 57-73 with the named amino acid at position 65, 50 μg/ml, day 6; for ELISpot response as % A-gliadin 57-73 QE65, E-substituted: glutamate-substituted peptide; for ELISpot response as % A-gliadin 57-73 QE65, E-substituted / ELISpot response as % A-gliadin 57-73 QE65, Wild type / ELISpot response as % A-gliadin 57-73 QE65, Wildtype + tTG: 4 subjects; for ELISpot response as % A-gliadin 57-73 QE65, Wild type: unmodified wild type peptide, blank 5 (1)%; for ELISpot response as % A-gliadin 57-73 QE65, Wildtype + tTG: wild type treated with tTG", "data": [{"compound": "AAG17702 (141-157): Wheat ω-gliadin homologue of A-gliadin 57-73, SEQ ID NO: 761 (PQQPFPQPQLPFPQQSE)", "values": [{"measurement": "Potency relative to A-gliadin 57-73", "setting": "after deamidation by tTG", "value": "approximately half as potent as A-gliadin 57-73"}, {"measurement": "% Bioactivity", "value": "32 (6.4) %"}]}, {"compound": "O49958 (214-230): Wheat LMW glutenin homologue, SEQ ID NO: 770 (QQCCRQLPQIPEQSRYD)", "values": [{"measurement": "% Bioactivity", "value": "−1.1 (0.3) %"}]}, {"compound": "PQLPYPQPQLPYPQPQP [AG10]", "values": [{"measurement": "Elisopt response TG", "value": "109(41-152))"}]}, {"compound": "PQPQPFLPQLPYPQPQS [AG12]", "values": [{"measurement": "Elisopt response TG", "value": "21(11-33)"}]}, {"compound": "PQPQPFPPQLPYPQPQS [AG13]", "values": [{"measurement": "Elisopt response TG", "value": "24(11-43)"}]}, {"compound": "Q43639 (335-351): Rye secalin homologue, SEQ ID NO: 764 (QQPSPQQPQLPFPQPQQ)", "values": [{"measurement": "% Bioactivity", "value": "1.6 (1.4) %"}]}, {"compound": "P10386 (183-199): Wheat LMW glutenin homologue, SEQ ID NO: 769 (QQCCQQLPQIPQQSRYE)", "values": [{"measurement": "% Bioactivity", "value": "−0.7 (0.5) %"}]}, {"compound": "N[C@@H](CS)C(=O)O", "note": "[Peptide C65]", "values": [{"measurement": "Bioactivity % of unmodified A-gliadin 57-73 QE65 (G)", "value": 42, "unit": "%"}, {"measurement": "Mean IFNγ ELISPOT response relative to the immunodominant epitope (Glu65)", "value": 62, "unit": "%"}]}, {"compound": "N[C@@H](CC(=O)O)C(=O)O", "note": "[Peptide D65]", "values": [{"measurement": "Bioactivity % of unmodified A-gliadin 57-73 QE65 (G)", "value": 95, "unit": "%"}, {"measurement": "Mean IFNγ ELISPOT response relative to the immunodominant epitope (Glu65)", "value": 65, "unit": "%"}]}, {"compound": "P21292 (96-112): Wheat γ-gliadin homologue, SEQ ID NO: 763 (QQTFPQQPQLPFPQQPQ)", "values": [{"measurement": "% Bioactivity", "value": "2.1 (4.2) %"}]}, {"compound": "QLQPFPQPELPY [reference compound]", "values": [{"measurement": "Bioactivity in IFNγ-ELISpot, Glu-substituted", "setting": "25 mcg/ml, n=6", "value": "28 % A-Gliadin 57-73 QE65 respons"}, {"measurement": "Bioactivity in IFNγ-ELISpot, WT+tTG", "setting": "25 mcg/ml, n=6", "value": "22 % A-Gliadin 57-73 QE65 respons"}, {"measurement": "Bioactivity in IFNγ-ELISpot, wild type (WT)", "setting": "25 mcg/ml, n=6", "value": "2 % A-Gliadin 57-73 QE65 respons"}, {"measurement": "ELISpot response as % A-gliadin 57-73 QE65, E-substituted", "setting": "25 mcg/ml", "value": "8 (3) %"}, {"measurement": "ELISpot response as % A-gliadin 57-73 QE65, Wild type", "setting": "25 mcg/ml", "value": "6 (2) %"}, {"measurement": "ELISpot response as % A-gliadin 57-73 QE65, Wildtype + tTG", "setting": "25 mcg/ml", "value": "19 (1) %"}, {"measurement": "IFNγ ELISpot response, Alone", "setting": "all 50 mcg/ml, tTG-gliadin 100 mcg/ml, PPD 5 mcg/ml, n=9", "value": 20, "unit": "% G01E response"}, {"measurement": "IFNγ ELISpot response, G01E+", "setting": "mixed with G01E, all 50 mcg/ml, tTG-gliadin 100 mcg/ml, PPD 5 mcg/ml, n=9", "value": 90, "unit": "% G01E response"}, {"measurement": "γIFN ELISpot response after gluten challenge", "setting": "relative to the dominant epitope = 100%", "value": 27, "unit": "%"}]}, {"compound": "PQPQPFPPQLPYPQPPP [AG015]", "values": [{"measurement": "Elisopt response TG", "value": "19(11-33)"}]}, {"compound": "PQLPYPQPELPYPQPQP [P04724 84-100 QE92]", "values": [{"measurement": "ELISpot response as % A-gliadin 57-73 QE65, E-substituted", "setting": "25 mcg/ml", "value": "69 (20) %"}, {"measurement": "ELISpot response as % A-gliadin 57-73 QE65, Wild type", "setting": "25 mcg/ml", "value": "14 (4) %"}, {"measurement": "ELISpot response as % A-gliadin 57-73 QE65, Wildtype + tTG", "setting": "25 mcg/ml", "value": "80 (17) %"}]}, {"compound": "P16315 (67-83): Wheat LMW glutenin homologue, SEQ ID NO: 766 (LQQQPILPQLPFSQQQQ)", "values": [{"measurement": "% Bioactivity", "value": "−0.9 (1.0) %"}]}, {"compound": "P80198 (52-68): Barley γ-hordein homologue, SEQ ID NO: 765 (QQPFPQQPQLPHQHQFP)", "values": [{"measurement": "% Bioactivity", "value": "−1.0 (1.8) %"}]}, {"compound": "QLQPFSQPQLPYSQPQP [AG08]", "values": [{"measurement": "Elisopt response TG", "value": "2(0-7)"}]}]}
